{"source": "paper PMC8217170", "about": "“Phase Ib dose-escalation study of the hypoxia-modifier Myo-inositol trispyrophosphate in patients with hepatopancreatobiliary tumors” (Nature Communications, 2021)", "key": {"ANG1": {"tested_on": "ANG1", "test": "Serum angiogenesis marker, multiplex bead-based immunoassay (LEGENDplex)", "assay_type": "in vivo, human", "parameters": "ANG1: unit not given here", "conditions": "for ANG1: serum, duplicate wells"}, "[1]": {"tested_on": "patients with PDAC, CRLM, CCA and HCC", "test": "Progression free and overall survival", "assay_type": "in vivo, human", "conditions": "for Follow up from study start / Survival status: individual patients; for Survival status: per 31st of December 2018", "from_the_text": "Ad hoc outcomes consisted of assessment of overall survival of patients in regard to tumor type and cohort as well as histological assessment of hypoxia markers in tumor tissue of selected patients.\nCohort size was based on the traditional 3 + 3 dose-escalation scheme without formal power or sample size calculation. Data are summarized with descriptive statistics using medians and interquartile ranges (IQRs) as indicated. Pearson’s coefficient was used to test for correlation between numerical variables, and Mann–Whitney U or Kruskal–Wallis tests for differences in continuous variables among groups. Kaplan–Meier curves and the Mantel–Cox log rank test were used for survival analyses. No adjustment for multiple testing was performed."}, "ERG": {"tested_on": "ERG", "test": "Immunohistochemistry of tumor tissue before vs after ITPP, one patient", "assay_type": "in vivo, human", "experimental": "(§1) Samples were collected in 4% buffered formaldehyde, dehydrated, embedded in paraffin and cut into 5 µm sections and stained after antigen retrieval. Hematoxylin/eosin and Masson’s trichrome stains were performed according to standard protocols. The following antibodies were used for immunohistochemical staining: pan-B cytokeratin (CkpanB, Dako, M3515, dilution 1/50), HIF1α (Abcam, ab16066, dilution 1/400), HIF2α (Abcam, ab199, dilution 1/50), carbonic anhydrase 9 (CA9, Abcam, ab15086, dilution 1/3000), glucose transporter 1/SLC2A1 (GLUT1, Millipore, 07-1401, dilution 1/1000), PECAM1 / CD31 (Dako, M0823, dilution 1/10), ETS transcription factor (ERG, Roche, 790-4576, prediluted) and vimentin (VIM, Dako, M7020, dilution 1/250). For histological analyses, 5 random images of tumor areas of stained slides were taken at 40x magnification. Stained areas were isolated by color deconvolution and thresholding. Quantification of staining intensity was measured on thresholded areas, converted onto a scale from 0 (white, no staining) to 100 (black, completely stained) and compared between the sample taken before ITPP treatment and the one after. For calculation of percentage area stained, thresholded areas were compared to the complete area of the picture. ImageJ (V1.53c, National Institutes of Health, USA) was used for all histological analyses.\n(§2) This analyses must be regarded with caution due to n=1!"}, "HIF1α": {"tested_on": "HIF1α", "test": "Immunohistochemistry of tumor tissue before vs after ITPP, one patient", "assay_type": "in vivo, human", "experimental": "as §1, §2"}, "HIF2α": {"tested_on": "HIF2α", "test": "Immunohistochemistry of tumor tissue before vs after ITPP, one patient", "assay_type": "in vivo, human", "conditions": "patient nr. 21, CRLM, only weak staining", "experimental": "as §1, §2"}, "PECAM1/CD31": {"tested_on": "PECAM1/CD31", "test": "Immunohistochemistry of tumor tissue before vs after ITPP, one patient", "assay_type": "in vivo, human", "conditions": "CD31 stain, group After (ITPP), one value per image field; threshold 0-90", "experimental": "as §1, §2"}, "SLC2A1/GLUT1": {"tested_on": "SLC2A1/GLUT1", "test": "Immunohistochemistry of tumor tissue before vs after ITPP, one patient", "assay_type": "in vivo, human", "conditions": "patient nr. 21, CRLM", "experimental": "as §1, §2"}, "Vimentin": {"tested_on": "Vimentin", "test": "Immunohistochemistry of tumor tissue before vs after ITPP, one patient", "assay_type": "in vivo, human", "experimental": "as §1, §2"}, "[2]": {"tested_on": "carbonic anhydrase 9 (CA9)", "test": "Immunohistochemistry of tumor tissue before vs after ITPP, one patient", "assay_type": "in vivo, human", "experimental": "as §1, §2"}, "[3]": {"tested_on": "human colon carcinomatosis", "parameters": "method as in ref 12 (supplementary references)", "conditions": "xenogeneic mouse model of human colon carcinomatosis; ref 12 (supplementary references); cited from earlier work"}}, "note": "Several values for one entry are separate records, joined by “and”; a condition that tells them apart may be missing. Equal entries are not always repeated.", "data": [{"compound": "O=P1(O)OC2C3OP(=O)(O)OP(=O)(O)OC3C3OP(=O)(O)OP(=O)(O)OC3C2OP(=O)(O)O1", "note": "(stereo not drawn) [ITPP, Myo-inositol trispyrophosphate]", "values": [{"measurement": "Share of patients with reduced ANG1", "setting": "ANG1; following ITPP treatment, 27 patients", "result": 51.9, "unit": "%"}, {"measurement": "ANG1", "setting": "ANG1; Patient 25, Cohort 8, PDAC, Day 3 post", "result": 692.38}, {"measurement": "ANG1", "setting": "ANG1; Patient 25, Cohort 8, PDAC, Day 9 post", "result": "719.05 and 765.98"}, {"measurement": "ANG1", "setting": "ANG1; Patient 26, Cohort 8, PDAC, Day 3 post", "result": "143.21 and 130.63"}, {"measurement": "ANG1", "setting": "ANG1; Patient 26, Cohort 8, PDAC, Day 9 post", "result": "207.7 and 218.53"}, {"measurement": "ANG1", "setting": "ANG1; Patient 27, Cohort 8, CCC, Day 3 post", "result": "904.42 and 799.6"}, {"measurement": "ANG1", "setting": "ANG1; Patient 27, Cohort 8, CCC, Day 9 post", "result": "835.71 and 800.95"}, {"measurement": "ANG1", "setting": "ANG1; Patient 28, Cohort 8, CRLM, Day 3 post", "result": "981.48 and 747.77"}, {"measurement": "ANG1", "setting": "ANG1; Patient 28, Cohort 8, CRLM, Day 9 post", "result": "618.86 and 532.8"}, {"measurement": "Median OS from start of ITPP infusions", "setting": "[1]; CCA", "result": 302, "unit": "days"}, {"measurement": "Median progression free survival (PFS)", "setting": "[1]; CCA", "result": 158, "unit": "days"}, {"measurement": "Median OS from start of ITPP infusions", "setting": "[1]; CRLM", "result": 340, "unit": "days"}, {"measurement": "Median progression free survival (PFS)", "setting": "[1]; CRLM", "result": 23, "unit": "days"}, {"measurement": "Median OS from start of ITPP infusions", "setting": "[1]; HCC", "result": 684, "unit": "days"}, {"measurement": "Median progression free survival (PFS)", "setting": "[1]; HCC", "result": 345, "unit": "days"}, {"measurement": "Median OS from start of ITPP infusions", "setting": "[1]; PDAC", "result": 165, "unit": "days"}, {"measurement": "Median progression free survival (PFS)", "setting": "[1]; PDAC", "result": 32, "unit": "days"}, {"measurement": "Follow up from study start", "setting": "[1]; cohort 1 (1866 mg/m2)", "result": "16 days and 464 days and 159 days and 398 days"}, {"measurement": "Survival status", "setting": "[1]; cohort 1, 1866 mg/m2", "result": "Dead"}, {"measurement": "Follow up from study start", "setting": "[1]; cohort 2 (3732 mg/m2)", "result": "783 days and 188 days and 158 days"}, {"measurement": "Survival status", "setting": "[1]; cohort 2, 3732 mg/m2", "result": "Dead"}, {"measurement": "Follow up from study start", "setting": "[1]; cohort 3 (5600 mg/m2)", "result": "159 days and 171 days and 206 days"}, {"measurement": "Survival status", "setting": "[1]; cohort 3, 5600 mg/m2", "result": "Dead"}, {"measurement": "Follow up from study start", "setting": "[1]; cohort 4 (7000 mg/m2)", "result": "193 days and 219 days and 684 days and 10 days"}, {"measurement": "Survival status", "setting": "[1]; cohort 4, 7000 mg/m2", "result": "Dead"}, {"measurement": "Follow up from study start", "setting": "[1]; cohort 5 (8750 mg/m2)", "result": "196 days and 202 days and 68 days"}, {"measurement": "Survival status", "setting": "[1]; cohort 5, 8750 mg/m2", "result": "Dead"}, {"measurement": "Follow up from study start", "setting": "[1]; cohort 6 (10500 mg/m2)", "result": "394 days and 510 days and 500 days and 301 days"}, {"measurement": "Survival status", "setting": "[1]; cohort 6, 10500 mg/m2", "result": "Dead and Alive"}, {"measurement": "Follow up from study start", "setting": "[1]; cohort 7 (12390 mg/m2)", "result": "87 days and 380 days and 392 days"}, {"measurement": "Survival status", "setting": "[1]; cohort 7, 12390 mg/m2", "result": "Dead and Alive"}, {"measurement": "Follow up from study start", "setting": "[1]; cohort 8 (14500 mg/m2)", "result": "43 days and 73 days and 266 days and 206 days"}, {"measurement": "Survival status", "setting": "[1]; cohort 8, 14500 mg/m2", "result": "Dead and Alive"}, {"measurement": "Overall survival", "setting": "[1]; patients with a lowering of PECAM1/CD31 under ITPP, p = 0.36", "result": 380, "unit": "days"}, {"measurement": "Overall survival", "setting": "[1]; patients with a lowering of VEGFA under ITPP, p = 0.053", "result": 398, "unit": "days"}, {"measurement": "Overall survival", "setting": "[1]; patients without lowering of PECAM1/CD31 under ITPP", "result": 171, "unit": "days"}, {"measurement": "Overall survival", "setting": "[1]; patients without lowering of VEGFA under ITPP", "result": 196, "unit": "days"}, {"measurement": "Median OS from start of ITPP infusions", "setting": "[1]; whole patient population", "result": 206, "unit": "days"}, {"measurement": "Median progression free survival (PFS)", "setting": "[1]; whole patient population", "result": 48, "unit": "days"}, {"measurement": "%Area", "setting": "ERG; Erg stain, group After (ITPP), one value per image field, threshold 0-130", "result": "0.53% and 0.557% and 0.323% and 0.603% and 0.393%"}, {"measurement": "ERG after ITPP treatment", "setting": "ERG; patient nr. 21, CRLM", "result": "more abundant"}, {"measurement": "%Area", "setting": "HIF1α; HIF1a stain, group After (ITPP), one value per image field, threshold 0-220", "result": "60.518% and 62.226% and 71.026% and 45.098% and 63.507%"}, {"measurement": "HIF1α staining, before vs after ITPP treatment", "setting": "HIF1α; patient nr. 21, CRLM, only weak staining", "result": "no difference"}, {"measurement": "HIF2α staining, before vs after ITPP treatment", "setting": "HIF2α", "result": "no difference"}, {"measurement": "%Area", "setting": "PECAM1/CD31", "result": "1.371% and 1.754% and 0.512% and 2.094% and 0.52%"}, {"measurement": "Expression of SLC2A1/GLUT1 in cancer cells after ITPP treatment", "setting": "SLC2A1/GLUT1", "result": "downregulated"}, {"measurement": "%Area", "setting": "Vimentin; Vim stain, group After (ITPP), one value per image field, threshold 0-160", "result": "29.786% and 30.117% and 24.166% and 28.151% and 26.502%"}, {"measurement": "Vimentin after ITPP administration", "setting": "Vimentin; patient nr. 21, CRLM", "result": "decreased"}, {"measurement": "%Area", "setting": "[2]; CAIX stain, group After (ITPP), one value per image field, threshold 0-130", "result": "0.006% and 0.014% and 0.943% and 0.008% and 0.048%"}, {"measurement": "Expression of carbonic anhydrase 9 (CA9) after ITPP treatment", "setting": "[2]; patient nr. 21, CRLM", "result": "decreased"}, {"measurement": "Decrease of tumor growth compared with capecitabine", "setting": "[3]", "result": "more efficient than capecitabine"}]}]}
